Here are results for 24 compounds from the supplement of paper PMC11061612.

The structures appear in SMILES notation.

Test in all cases: Bliss excess, mean over the matrix (fraction); higher = more synergy
Assay [1] relates to 639-V (Bladder Carcinoma). Summed up: (§1)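 Bliss excess equals the observed combination effect minus the expected value EA + EB − EA·EB, where EA and EB are the effects of each agent alone. Combination Emax is the second-highest inhibition within the matrix. Inhibition was scaled from CellTiter-Glo 2.0 luminescence, with 0 set by vehicle wells and 1 by blank wells, after 72 hours of two-drug dosing of cells plated in 1536-well plates.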

The test system of assay [2] is 8305C (Thyroid Gland Carcinoma). The essentials:
as §1

Assay [3] has as its system HARA (Squamous Cell Lung Carcinoma). The essentials:
as §1

The subject of assay [4] is Hs-633T (Other Solid Carcinomas). The essentials: as §1
Assay [5] deals with KYSE-410 (Esophageal Squamous Cell Carcinoma). Summed up: as §1
The subject of assay [6] is MDA-MB-468 (Breast Carcinoma). The essentials:
as §1

Assay [7] relates to NCI-H747 (Colorectal Carcinoma). The essentials: as §1

Take `NC1(C(=O)N[C@@H](CCO)c2ccc(Cl)cc2)CCN(c2ncnc3[nH]ccc23)CC1` [Capivasertib] + CC(=O)c1c(C)c2cnc(Nc3ccc(N4CCNCC4)cn3)nc2n(C2CCCC2)c1=O [Palbociclib] (first compound max 10 µM, 7x7, partner max 10 µM): the Bliss excess in assay [1] was -0.0612; in assay [2], -0.0461; in assay [3], 0.0388; in assay [4], 0.0179; in assay [5] it was 0.0199; in assay [6], -0.0075. Moreover, the Bliss excess in assay [7] was -0.0032.
Regarding `CS(=O)(=O)CCNCc1ccc(-c2ccc3ncnc(Nc4ccc(OCc5cccc(F)c5)c(Cl)c4)c3c2)o1` [Lapatinib] + C[C@@H](Oc1cc(-c2cnn(C3CCNCC3)c2)cnc1N)c1c(Cl)ccc(F)c1Cl [Crizotinib] (first compound max 10 µM, 7x7, partner max 10 µM), the Bliss excess in assay [1] was -0.0596; in assay [2], -0.169; in assay [3], -0.0259; in assay [4], -0.0338; in assay [5] it was -0.0183; in assay [6] it was -0.0582. Besides, in assay [7], the Bliss excess is -0.0413.
Regarding `CS(=O)(=O)CCNCc1ccc(-c2ccc3ncnc(Nc4ccc(OCc5cccc(F)c5)c(Cl)c4)c3c2)o1` [Lapatinib] + Cn1cnc2c(F)c(Nc3ccc(Br)cc3Cl)c(C(=O)NOCCO)cc21 [Selumetinib] (first compound max 10 µM, 7x7, partner max 10 µM), the Bliss excess in assay [2] is -0.0297; in assay [3], -0.0257; in assay [4], 0.026; in assay [6] it was -0.0835.
For the compound `NC1(C(=O)N[C@@H](CCO)c2ccc(Cl)cc2)CCN(c2ncnc3[nH]ccc23)CC1` [Capivasertib] + COc1nnc2ccc(N3CCC(c4ccc(OCCN5CCN(C)C(=O)[C@H]5C)cc4)CC3)nn12 [AZD5153] (first compound max 10 µM, 7x7, partner max 1 µM), the Bliss excess in assay [1] is 0.0409; in assay [2] it was 0.014; in assay [3] it was -0.0019; in assay [4], 0.0419; in assay [5], 0.0437; in assay [6] it was -0.0281. In assay [7], the Bliss excess was -0.042.
With `Cn1cnc2c(F)c(Nc3ccc(Br)cc3Cl)c(C(=O)NOCCO)cc21` [Selumetinib] + C[C@@H]1COCCN1C2=NC(=NC(=C2)C3(CC3)[S@](=N)(=O)C)C4=C5C=CNC5=NC=C4 [AZD6738] (first compound max 10 µM, 7x7, partner max 10 µM), the Bliss excess was 0.0585 in assay [1]; -0.0238 in assay [2]; -0.0115 in assay [3]; -0.0012 in assay [4]; 0.0274 in assay [5]; 0.002 in assay [7].
As for `NC1(C(=O)N[C@@H](CCO)c2ccc(Cl)cc2)CCN(c2ncnc3[nH]ccc23)CC1` [Capivasertib] + CC(C)n1c(=O)n(C)c2cnc3cc(F)c(-c4ccc(OCCCN5CCCCC5)nc4)cc3c21 [AZD1390] (first compound max 10 µM, 7x7, partner max 0.3 µM), the Bliss excess in assay [1] was -0.0376; in assay [2] it was -0.0773; in assay [3] it was -0.0216; in assay [4] it was -0.0656; in assay [5] it was -0.0795; in assay [6], -0.0464. Further, the Bliss excess in assay [7] was -0.0791.
Regarding `NC1(C(=O)N[C@@H](CCO)c2ccc(Cl)cc2)CCN(c2ncnc3[nH]ccc23)CC1` [Capivasertib] + Cn1cnc2c(F)c(Nc3ccc(Br)cc3Cl)c(C(=O)NOCCO)cc21 [Selumetinib] (first compound max 10 µM, 7x7, partner max 10 µM), the Bliss excess is -0.0183 in assay [1]; -0.0212 in assay [2]; -0.0186 in assay [3]; 0.0259 in assay [4]; 0.0521 in assay [5]; 0.0736 in assay [6]. In addition, in assay [7], the Bliss excess is -0.0187.
Turning to `Cn1cnc2c(F)c(Nc3ccc(Br)cc3Cl)c(C(=O)NOCCO)cc21` [Selumetinib] + CC(C)n1c(=O)n(C)c2cnc3cc(F)c(-c4ccc(OCCCN5CCCCC5)nc4)cc3c21 [AZD1390] (first compound max 10 µM, 7x7, partner max 0.3 µM), the Bliss excess in assay [1] is -0.0783; in assay [2] it was -0.057; in assay [3], -0.0159; in assay [4], 0.0303; in assay [5], -0.0327; in assay [7] it was -0.0334.
Regarding `COc1nnc2ccc(N3CCC(c4ccc(OCCN5CCN(C)C(=O)[C@H]5C)cc4)CC3)nn12` [AZD5153] + C[C@@H]1COCCN1C2=NC(=NC(=C2)C3(CC3)[S@](=N)(=O)C)C4=C5C=CNC5=NC=C4 [AZD6738] (first compound max 1 µM, 7x7, partner max 10 µM), the Bliss excess in assay [1] is 0.0933; in assay [2], -0.0088; in assay [3] it was -0.0012; in assay [4] it was 0.0037; in assay [5], 0.041; in assay [7], 0.0079.
As for `C[C@@H](c1ccc2nccn2c1)n1nnc2ncc(-c3cnn(C)c3)nc21` [Savolitinib] + CC1(C)CCC(CN2CCN(c3ccc(C(=O)NS(=O)(=O)c4ccc(NCC5CCOCC5)c([N+](=O)[O-])c4)c(Oc4cnc5[nH]ccc5c4)c3)CC2)=C(c2ccc(Cl)cc2)C1 [Venetoclax] (first compound max 1 µM, 7x7, partner max 1 µM), the Bliss excess in assay [1] was -0.112; in assay [2], -0.115; in assay [3] it was -0.031; in assay [4], -0.0383; in assay [5], -0.0726; in assay [7], -0.0817.
As for `COc1cc2ncnc(Nc3ccc(F)c(Cl)c3)c2cc1OCCCN1CCOCC1` [Gefitinib] + CC(C)n1c(=O)n(C)c2cnc3cc(F)c(-c4ccc(OCCCN5CCCCC5)nc4)cc3c21 [AZD1390] (first compound max 10 µM, 7x7, partner max 0.3 µM), the Bliss excess was -0.0765 in assay [1]; -0.147 in assay [2]; -0.0343 in assay [3]; -0.0684 in assay [4]; -0.0779 in assay [5]; -0.0986 in assay [7].
Consider `C[C@@H](c1ccc2nccn2c1)n1nnc2ncc(-c3cnn(C)c3)nc21` [Savolitinib] + Cc1c2c(nn1C)CSCc1cc(n(C)n1)CSc1cc(c3ccccc3c1)OCCCc1c(C(=O)O)n(C)c3c-2c(Cl)ccc13 [AZD5991] (first compound max 1 µM, 7x7, partner max 1 µM), for which the Bliss excess was -0.111 in assay [1]; -0.0781 in assay [2]; -0.0353 in assay [3]; -0.0551 in assay [4]; -0.0749 in assay [5]; -0.0465 in assay [7].
`COc1nnc2ccc(N3CCC(c4ccc(OCCN5CCN(C)C(=O)[C@H]5C)cc4)CC3)nn12` [AZD5153] + Cc1c2c(nn1C)CSCc1cc(n(C)n1)CSc1cc(c3ccccc3c1)OCCCc1c(C(=O)O)n(C)c3c-2c(Cl)ccc13 [AZD5991] (first compound max 1 µM, 7x7, partner max 1 µM): the Bliss excess in assay [1] is -0.0552; in assay [2] it was -0.0922; in assay [3], -0.0142; in assay [4] it was 0.0227; in assay [5], 0.0001; in assay [7] it was -0.0442.
`CC(=O)c1c(C)c2cnc(Nc3ccc(N4CCNCC4)cn3)nc2n(C2CCCC2)c1=O` [Palbociclib] + CC1(C)CCC(CN2CCN(c3ccc(C(=O)NS(=O)(=O)c4ccc(NCC5CCOCC5)c([N+](=O)[O-])c4)c(Oc4cnc5[nH]ccc5c4)c3)CC2)=C(c2ccc(Cl)cc2)C1 [Venetoclax] (first compound max 10 µM, 7x7, partner max 1 µM): the Bliss excess in assay [1] was -0.0686; in assay [2], -0.0306; in assay [3], 0.0119; in assay [4], -0.0251; in assay [5], -0.0511; in assay [6] it was -0.0241. Besides, the Bliss excess in assay [7] stood at 0.017.
As for `Cn1cnc2c(F)c(Nc3ccc(Br)cc3Cl)c(C(=O)NOCCO)cc21` [Selumetinib] + C=CCn1c(=O)c2cnc(Nc3ccc(N4CCN(C)CC4)cc3)nc2n1-c1cccc(C(C)(C)O)n1 [AZD1775] (first compound max 10 µM, partner max 1 µM), the Bliss excess was -0.0207 in assay [1]; -0.0383 in assay [2]; -0.0406 in assay [3]; -0.0094 in assay [4]; 0.0543 in assay [5]; -0.0761 in assay [7].
Take `COc1nnc2ccc(N3CCC(c4ccc(OCCN5CCN(C)C(=O)[C@H]5C)cc4)CC3)nn12` [AZD5153] + C=CCn1c(=O)c2cnc(Nc3ccc(N4CCN(C)CC4)cc3)nc2n1-c1cccc(C(C)(C)O)n1 [AZD1775] (first compound max 1 µM, partner max 1 µM): the Bliss excess in assay [1] was -0.0367; in assay [2], -0.077; in assay [3] it was -0.0899; in assay [4], -0.0516; in assay [5], -0.0516; in assay [7], -0.0633.
Turning to `Cn1cnc2c(F)c(Nc3ccc(Br)cc3Cl)c(C(=O)NOCCO)cc21` [Selumetinib] + CCN(CCO)CCCOc1ccc2c(Nc3cc(CC(=O)Nc4cccc(F)c4)[nH]n3)ncnc2c1 [AZD2811] (first compound max 10 µM, 7x7, partner max 1 µM), the Bliss excess in assay [1] was -0.0438; in assay [2] it was -0.0075; in assay [3], 0.0522; in assay [4] it was 0.0395; in assay [5] it was 0.0033; in assay [7] it was -0.0428.
As for `Cc1nc(-c2cn3c(n2)-c2ccc(-c4cnn(C(C)(C)C(N)=O)c4)cc2OCC3)n(C(C)C)n1` [Taselisib] + O=C(Nc1ccc2[nH]nc(-c3ccncc3)c2c1)[C@@H]1CCN(CC(=O)N2CCN(c3ccc(-c4ncccn4)cc3)CC2)C1 [SCH772984] (first compound max 10 µM, 7x7, partner max 5 µM), the Bliss excess in assay [2] was 0.0199; in assay [3], 0.0577; in assay [4] it was 0.0891; in assay [6] it was -0.003.
Turning to `NC1(C(=O)N[C@@H](CCO)c2ccc(Cl)cc2)CCN(c2ncnc3[nH]ccc23)CC1` [Capivasertib] + CCN(CCO)CCCOc1ccc2c(Nc3cc(CC(=O)Nc4cccc(F)c4)[nH]n3)ncnc2c1 [AZD2811] (first compound max 10 µM, 7x7, partner max 1 µM), the Bliss excess is 0.0193 in assay [1]; 0.0022 in assay [2]; 0.0137 in assay [3]; 0.0136 in assay [4]; -0.0104 in assay [5]; -0.063 in assay [6]. Moreover, the Bliss excess in assay [7] was -0.0255.
Regarding `C=CCn1c(=O)c2cnc(Nc3ccc(N4CCN(C)CC4)cc3)nc2n1-c1cccc(C(C)(C)O)n1` [AZD1775] + CCc1c2c(nc3ccc(O)cc13)-c1cc3c(c(=O)n1C2)COC(=O)[C@]3(O)CC [SN-38] (first compound max 1 µM, partner max 0.3 µM), the Bliss excess in assay [2] is -0.0536; in assay [3] it was -0.015; in assay [4] it was -0.0522; in assay [6], -0.0811.
As to `CS(=O)(=O)CCNCc1ccc(-c2ccc3ncnc(Nc4ccc(OCc5cccc(F)c5)c(Cl)c4)c3c2)o1` [Lapatinib] + NC1(c2ccc(-c3nc4ccn5c(=O)[nH]nc5c4cc3-c3ccccc3)cc2)CCC1 [MK-2206] (first compound max 10 µM, 7x7, partner max 10 µM), the Bliss excess in assay [2] is 0.118; in assay [3], 0.086; in assay [4], 0.0256; in assay [6], 0.0008; in assay [7], -0.126.
On to `COc1nnc2ccc(N3CCC(c4ccc(OCCN5CCN(C)C(=O)[C@H]5C)cc4)CC3)nn12` [AZD5153] + CC1(C)CCC(CN2CCN(c3ccc(C(=O)NS(=O)(=O)c4ccc(NCC5CCOCC5)c([N+](=O)[O-])c4)c(Oc4cnc5[nH]ccc5c4)c3)CC2)=C(c2ccc(Cl)cc2)C1 [Venetoclax] (first compound max 1 µM, 7x7, partner max 1 µM), for which the Bliss excess in assay [1] was -0.0962; in assay [2], -0.0901; in assay [3], -0.0617; in assay [4] it was -0.0373; in assay [5], -0.0898; in assay [7], -0.0522.
As to `COc1nnc2ccc(N3CCC(c4ccc(OCCN5CCN(C)C(=O)[C@H]5C)cc4)CC3)nn12` [AZD5153] + CCN(CCO)CCCOc1ccc2c(Nc3cc(CC(=O)Nc4cccc(F)c4)[nH]n3)ncnc2c1 [AZD2811] (first compound max 1 µM, 7x7, partner max 1 µM), the Bliss excess in assay [1] was -0.063; in assay [2], -0.0629; in assay [3], -0.0548; in assay [4], -0.0285; in assay [5], -0.0182; in assay [7], -0.0623.
Turning to `COc1nnc2ccc(N3CCC(c4ccc(OCCN5CCN(C)C(=O)[C@H]5C)cc4)CC3)nn12` [AZD5153] + Cn1cnc2c(F)c(Nc3ccc(Br)cc3Cl)c(C(=O)NOCCO)cc21 [Selumetinib] (first compound max 1 µM, 7x7, partner max 10 µM), the Bliss excess in assay [1] was -0.0459; in assay [2], -0.0323; in assay [3], 0.0308; in assay [4], 0.0302; in assay [5], -0.0784; in assay [7] it was -0.0727.
